Patent publication US8642784B2, “Biologically active compound N-[3-(4-nitrophenylamino)-indole-2-ilmethylene]aminoguanidine hydrochloride with anti-inflammatory activity” (priority 2010, dated 2014)
Where two headings read alike, the source gives them in different places. Marks after values point to notes of the source that are not given here.

What was measured:
[1] = tested on: constitutive forms of NO-synthase; conditions: compared with L-NMMA; cited from earlier work
[2] = tested on: LPS-induced peritonitis in mice; assay: LPS-induced peritonitis in mice, volume of exudate; assay type: in vivo
Experimental: Activity was studies using the methods listed in “Methodical recommendations on experimental (preclinical) research of new nonsteroidal anti-inflammatory drugs” for new compounds screening, in animal models of peritonitis induced by lipopolysaccharide (LPS) and carrageenan.
(§1) Anti-exudative action was studied in male mice with body mice 22.0-23.0 g. Peritonitis was induced by intraperitoneal administration of lipopolysaccharide (LPS), produced from Escherichia coli (Sigma) 1.0 mg/kg, as described in [6]: after 4 hours the animals were sacrificed by CO2, their peritoneal cavity opened and the volume of exudate was measured in ml. Studied compounds and drugs of comparison were administered per os one hour before LPS, control group was composed of mice receiving 0.3 ml of saline before LPS administration. Each group had 10 animals.
(§2) The results were processed using variation statistics methods for biological research (mean standard error, means were calculated using Student's t-distribution).

[3] = tested on: LPS-induced peritonitis in rats; assay: LPS-induced peritonitis in rats, volume of exudate; assay type: in vivo; conditions: rats; for ED50: LPS-induced peritonitis, per os
Experimental: as §1, with “male rate” for “male mice”, “body mass 170.0-180.0” for “body mice 22.0-23.0”, “coli (Sigma)—1.0 mg/kg” for “coli (Sigma) 1.0 mg/kg,”, “of rats” for “of mice”, “had 7” for “had 10”
as §2

mice stomach [4] = assay: Aggravation of ulcerogenic effect by indomethacin; assay type: in vivo; conditions: mice; compound 2 100 mg/kg, voltaren 50 mg/kg, aminoguanidine 200 mg/kg, 1 hour before indomethacin 20 mg/kg; after 5 hours
Experimental: (§3) Studies were performed according to the following scheme: • 1. […] Study of the compounds' ulcerogenic action using pharmaceutical dose during 7 days of administration. • 3. Aggravation of ulcerogenic effects of studied compounds by 0.6H hydrochloric acid. • 4. Aggravation of ulcerogenic effects of studied compounds by the known NSAIDs (indomethacin). 1.
(§4) Ulcerogenic effect was assessed using 4-point scale: 0—no damage; 0.5—hyperemia; 1—insignificant damage (1 or 2 small bleedings); 2—multiple damage (erosions, small bleedings); 3—significant and multiple damage (erosions, bleedings); 4—severe damage, affecting all gastric mucosa (massive bleedings, erosions, perforations).
(§5) Male mice with body mass 23-24 g were deprived of food for 24 hours, water access was not limited.
Drugs of comparison: voltaren—50 mg/kg and aminoguanidine—200 mg/kg. Each test group had 10 animals.

mice stomach [5] = assay: Aggravation of ulcerogenic effects by 0.6H hydrochloric acid; assay type: in vivo; conditions: compound 2 100 mg/kg, indomethacin 20 mg/kg, voltaren 50 mg/kg, aminoguanidine 200 mg/kg, 1 hour before 0.6H HCl 5 ml/kg, after 4 hours
Experimental: as §3, §4, §5
(§6) Drugs of comparison: indomethacin 20 mg/kg, voltaren—50 mg/kg and aminoguanidine—200 mg/kg. Each test group had 10 animals.

mice stomach [6] = assay type: in vivo; conditions: for Average ulcerogenic index (4-point scale) of chronic administration of pharmacological dose: mice, per os 7 days, compound 2 200 mg/kg, indomethacin 20 mg/kg, voltaren 50 mg/kg, aminoguanidine 200 mg/kg; for Ulcerogenic effects of drugs of comparison: mice ulceration models, summary of table 4
Experimental: as §3, §4
After 7 days the animals were sacrificed by CO2, their stomachs extracted and the number of ulcers counted.
as §6

[7] = target: inducible isoenzymes of NO-synthase (Homo sapiens, UniProt P35228); conditions: most in vitro systems; cited from earlier work
[8] = tested on: carrageenan-induced peritonitis in mice; assay: Carrageenan-induced peritonitis in mice, volume of exudate; assay type: in vivo
Experimental: Research was carried out by a method described in [5]. Experiments were performed using male mice with body mass 23-24 g, in groups of 10 animals. […] The results were processed using variation statistics methods for biological research (mean standard error, means were calculated using Student's t-distribution).

animal models = conditions: in vivo; cited from earlier work

SMILES	Anti-inflammatory activity in LPS-induced peritonitis model, % of control ([2]; 50.0 mg/kg per os)	Anti-inflammatory activity in LPS-induced peritonitis model, % of control ([2]; 100.0 mg/kg per os)	Anti-inflammatory activity in LPS-induced peritonitis model, % of control ([3]; 25.0 mg/kg per os)	Anti-inflammatory activity in LPS-induced peritonitis model, % of control ([3]; 50.0 mg/kg per os)	Anti-inflammatory activity in LPS-induced peritonitis model, % of control ([3]; 75.0 mg/kg per os)	Average ulcerogenic index (4-point scale) of combining the studied compounds with indomethacin (mice stomach [4])	Average ulcerogenic index (4-point scale) of combining the studied compounds with hydrochloric acid (mice stomach [5])	Average ulcerogenic index (4-point scale) of chronic administration of pharmacological dose (mice stomach [6])	Anti-inflammatory activity in carrageenan-induced peritonitis model, % of control ([8]; 50.0 mg/kg per os)	Anti-inflammatory activity in carrageenan-induced peritonitis model, % of control ([8]; 100.0 mg/kg per os)	Ulcerogenic effects of drugs of comparison (mice stomach [6])	also measured
N=C(N)NN [Aminoguanidine, N-aminoguanidine]	51.1* % of control	73.3* % of control	4.0 % of control	22.0* % of control	58.0* % of control	0.19	0.15	0	25.5* % of control	70.6* % of control		Activity towards constitutive forms of NO-synthase [1]: much less active towards constitutive forms; Anti-inflammatory activity in LPS-induced peritonitis model, % of control ([2]; 200.0 mg/kg per os): 91.1* % of control; Anti-inflammatory activity in LPS-induced peritonitis model, % of control ([3]; 100.0 mg/kg per os): 78.0* % of control; Anti-inflammatory activity in LPS-induced peritonitis model, % of control ([3]; 200.0 mg/kg per os): 100.0* % of control; ED50 [3]: 70.0 ± 2.5 mg/kg; Inhibition of inducible isoenzymes of NO-synthase [7]: equally effective in inhibiting inducible isoenzymes; Anti-inflammatory activity in carrageenan-induced peritonitis model, % of control ([8]; 200.0 mg/kg per os): 84.3* % of control; Effect in animal models of inflammation, septic shock, endotoxin (animal models): reduces the severity of inflammation and septic shock, improves survival during endotoxin administration
COc1ccc2c(c1)c(CC(=O)O)c(C)n2C(=O)c1ccc(Cl)cc1 [Indomethacin, indomethacin]							2.4	1.15			had ulcerogenic effects	
O=C(O)Cc1ccccc1Nc1c(Cl)cccc1Cl [Voltaren, sodium diclofenac]	95.6* % of control	100.0* % of control	65.0* % of control	84.0* % of control	100.0* % of control	2.5	0.55	0.35	90.2* % of control	100.0* % of control	had ulcerogenic effects	Anti-inflammatory activity in LPS-induced peritonitis model, % of control ([2]; 25.0 mg/kg per os): 82.2* % of control; ED50 ([3]; Rattus norvegicus, po, read-out: ED50): 20 ± 1.5 mg/kg; Anti-inflammatory activity in LPS-induced peritonitis model, % of control ([3]; 10.0 mg/kg per os): 22.0 % of control; Anti-inflammatory activity in carrageenan-induced peritonitis model, % of control ([8]; 25.0 mg/kg per os): 80.4* % of control
